In US11370763B2, “Compounds and compositions for treating conditions associated with NLRP activity” (Novartis AG, priority 2017, dated 2022):
Like-named read-outs stand apart in the source and are kept apart here.

Test system: IL-1β production in PMA-differentiated THP-1 cells
Assay: IL-1β production in PMA-differentiated THP-1 cells stimulated with gramicidin (hTHP-1 assay containing 2% fetal bovine serum; Procedures 1-3)
Format: cell-based, human
Settings: read-out: hTHP-1 IC50 (Average IC50 of compounds in hTHP-1 assay)
Experimental: The following protocol is suitable for testing the activity of the compounds disclosed herein.
Procedure 1: IL-1β Production in PMA-Differentiated THP-1 Cells Stimulated with Gramicidin
THP-1 cells were purchased from the American Type Culture Collection and sub-cultured according to instructions from the supplier. Cells were cultured in complete RPMI 1640 (containing 10% heat inactivated FBS, penicillin (100 units/ml) and streptomycin (100 μg/ml)), and maintained in log phase prior to experimental setup. Prior to the experiment, compounds were dissolved in dimethyl sulfoxide (DMSO) to generate a 30 mM stock. The compound stock was first pre-diluted in DMSO to 3, 0.34, 0.042 and 0.0083 mM intermediate concentrations and subsequently spotted using Echo550 liquid handler into an empty 384-well assay plate to achieve desired final concentration (e.g. 100, 33, 11, 3.7, 1.2, 0.41, 0.14, 0.046, 0.015, 0.0051, 0.0017 μM). DMSO was backfilled in the plate to achieve a final DMSO assay concentration of 0.37%. The plate was then sealed and stored at room temperature until required.
THP-1 cells were treated with PMA (Phorbol 12-myristate 13-acetate) (20 ng/ml) for 16-18 hours. On the day of the experiment the media was removed and adherent cells were detached with trypsin for 5 minutes. Cells were then harvested, washed with complete RPMI 1640, spun down, and resuspended in RPMI 1640 (containing 2% heat inactivated FBS, penicillin (100 units/ml) and streptomycin (100 μg/ml). The cells were plated in the 384-well assay plate containing the spotted compounds at a density of 50,000 cells/well (final assay volume 50 μl). Cells were incubated with compounds for 1 hour and then stimulated with gramicidin (5 μM) (Enzo) for 2 hours. Plates were then centrifuged at 340 g for 5 min. Cell free supernatant (40 μL) was collected using a 96-channel PlateMaster (Gilson) and the production of IL-1β was evaluated by HTRF (cisbio). The plates were incubated for 18 h at 4° C. and read using the preset HTRF program (donor emission at 620 nm, acceptor emission at 668 nm) of the SpectraMax i3x spectrophotometer (Molecular Devices, software SoftMax 6). A vehicle only control and a dose titration of CRID3 (100-0.0017 μM) were run concurrently with each experiment.
Procedure 2: IL-1β Production in PMA-Differentiated THP-1 Cells Stimulated with Gramicidin
THP-1 cells were purchased from the American Type Culture Collection and sub-cultured according to instructions from the supplier. Prior to experiments, cells were cultured in complete RPMI 1640 (containing 10% heat inactivated FBS, penicillin (100 units/ml) and streptomycin (100 μg/ml)), and maintained in log phase prior to experimental setup. Prior to the experiment THP-1 were treated with PMA (Phorbol 12-myristate 13-acetate) (20 ng/ml) for 16-18 hours. Compounds were dissolved in dimethyl sulfoxide (DMSO) to generate a 30 mM stock. On the day of the experiment the media was removed and adherent cells were detached with trypsin for 5 minutes. Cells were then harvested, washed with complete RPMI 1640, spun down, resuspended in RPMI 1640 (containing 2% heat inactivated FBS, penicillin (100 units/ml) and streptomycin (100 μg/ml). The cells were plated in a 384-well plate at a density of 50,000 cells/well (final assay volume 50 μl). Compounds were first dissolved in assay medium to obtain a 5× top concentration of 500 μM. 10 step dilutions (1:3) were then undertaken in assay medium containing 1.67% DMSO. 5× compound solutions were added to the culture medium to achieve desired final concentration (e.g. 100, 33, 11, 3.7, 1.2, 0.41, 0.14, 0.046, 0.015, 0.0051, 0.0017 μM). Final DMSO concentration was at 0.37%. Cells were incubated with compounds for 1 hour and then stimulated with gramicidin (5 μM) (Enzo) for 2 hours. Plates were then centrifuged at 340 g for 5 min. Cell free supernatant (40 μL) was collected using a 96-channel PlateMaster (Gilson) and the production of IL-1β was evaluated by HTRF (cisbio). […]

[1] = Homo sapiens, THP-1, hTHP-1 assay containing 2% fetal bovine serum, class symbols
[2] = Homo sapiens, THP-1, hTHP-1 assay containing 2% fetal bovine serum, given as numeric bound
[3] = hTHP-1 assay containing 2% fetal bovine serum, class symbols

| IC50 [1] [µM] | IC50 [2] [µM] | Compound | also measured |
| --- | --- | --- | --- |
| 5 to 30 | – | CC(C)c1ccc(F)c(C(C)C)c1CC(=O)N=S(N)(=O)c1ccc2c(cnn2C)c1 (single isomer, unassigned) [Example 198, (R) or (S)-N-(amino(1-methyl-1H-indazol-5-yl)(oxo)-λ^6-sulfaneylidene)-2-(3-fluoro-2,6-diisopropylphenyl)acetamide] | – |
| – | > 30 | CC(C)c1ccc(F)c(C(C)C)c1CC(=O)N=S(N)(=O)c1ccc2c(cnn2C)c1 (single isomer, unassigned) [Example 199, (S) or (R)-N-(amino(1-methyl-1H-indazol-5-yl)(oxo)-λ^6-sulfaneylidene)-2-(3-fluoro-2,6-diisopropylphenyl)acetamide] | – |
| 1 to 5 | – | CC(C)c1ccc(F)c(C(C)C)c1CC(=O)N=S(N)(=O)c1ccc(CN(C)C)cn1 (single isomer, unassigned) [Example 200, (R) or (S)-N-(amino(5-((dimethylamino)methyl)pyridin-2-yl)(oxo)-λ^6-sulfaneylidene)-2-(3-fluoro-2,6-diisopropylphenyl)acetamide] | – |
| – | > 30 | CC(C)c1ccc(F)c(C(C)C)c1CC(=O)N=S(N)(=O)c1ccc(CN(C)C)cn1 (single isomer, unassigned) [Example 201, (S) or (R)-N-(amino(5-((dimethylamino)methyl)pyridin-2-yl)(oxo)-λ^6-sulfaneylidene)-2-(3-fluoro-2,6-diisopropylphenyl)acetamide] | – |
| – | – | CC(C)c1nc(-c2cccc(C(F)(F)F)c2)c(F)c(C(C)C)c1CC(=O)N=S(N)(=O)c1cnc(C(C)(C)O)s1 (single isomer, unassigned) [Example 202, N-(amino(2-(2-hydroxypropan-2-yl)thiazol-5-yl)(oxo)-λ^6-sulfaneylidene)-2-(5-fluoro-2,4-diisopropyl-6-(3-(trifluoromethyl)phenyl)pyridin-3-yl)acetamide] | IC50 [3]: 0.2 to 1 µM |
| 1 to 5 | – | CC(C)c1ncc(F)c(C(C)C)c1CC(=O)N=S(N)(=O)c1ncc(C(C)(C)O)s1 (single isomer, unassigned) [Example 204, N-(amino(5-(2-hydroxypropan-2-yl)thiazol-2-yl)(oxo)-λ^6-sulfaneylidene)-2-(5-fluoro-2,4-diisopropylpyridin-3-yl)acetamide] | – |
| – | > 30 | CC(C)c1ncc(F)c(C(C)C)c1CC(=O)N=S(N)(=O)c1ncc(C(C)(C)O)s1 (single isomer, unassigned) [Example 205, (S) or (R)-N-(amino(5-(2-hydroxypropan-2-yl)thiazol-2-yl)(oxo)-λ^6-sulfaneylidene)-2-(5-fluoro-2,4-diisopropylpyridin-3-yl)acetamide] | – |
| 0.2 to 1 | – | CC(C)c1ncc(F)c(C(C)C)c1CC(=O)N=S(N)(=O)c1nc(C(C)(C)O)cs1 (single isomer, unassigned) [Example 206, N-(amino(4-(2-hydroxypropan-2-yl)thiazol-2-yl)(oxo)-λ^6-sulfaneylidene)-2-(5-fluoro-2,4-diisopropylpyridin-3-yl)acetamide] | – |
| – | > 30 | CC(C)c1ncc(F)c(C(C)C)c1CC(=O)N=S(N)(=O)c1nc(C(C)(C)O)cs1 (single isomer, unassigned) [Example 207, (S) or (R)-N-(amino(4-(2-hydroxypropan-2-yl)thiazol-2-yl)(oxo)-λ^6-sulfaneylidene)-2-(5-fluoro-2,4-diisopropylpyridin-3-yl)acetamide] | – |
| – | – | CC(C)c1ncc(F)c(C(C)C)c1CC(=O)N=S(N)(=O)c1sc(C(C)(C)O)cc1F (single isomer, unassigned) [Example 211, N-(amino(3-fluoro-5-(2-hydroxypropan-2-yl)thiophen-2-yl)(oxo)-λ^6-sulfaneylidene)-2-(5-fluoro-2,4-diisopropylpyridin-3-yl)acetamide] | IC50 [3]: 0.2 to 1 µM |
| – | > 30 | CC(C)c1cc2c(c(C(C)C)c1CC(=O)N=S(N)(=O)c1cnc(C(C)(C)O)s1)CCC2 (single isomer, unassigned) [Example 212, (R) or (S)-N-(amino(2-(2-hydroxypropan-2-yl)thiazol-5-yl)(oxo)-λ^6-sulfaneylidene)-2-(4,6-diisopropyl-2,3-dihydro-1H-inden-5-yl)acetamide] | – |
| 1 to 5 | – | CC(C)c1cc2c(c(C(C)C)c1CC(=O)N=S(N)(=O)c1cnc(C(C)(C)O)s1)CCC2 (single isomer, unassigned) [Example 213, (S) or (R)-N-(amino(2-(2-hydroxypropan-2-yl)thiazol-5-yl)(oxo)-λ^6-sulfaneylidene)-2-(4,6-diisopropyl-2,3-dihydro-1H-inden-5-yl)acetamide] | – |
| 5 to 30 | – | CC(C)c1cc2c(c(C(C)C)c1CC(=O)N=S(N)(=O)c1ccn(C(C)C)n1)COC2 (single isomer, unassigned) [Example 218, (R) or (S)-N-(amino(1-isopropyl-1H-pyrazol-3-yl)(oxo)-λ^6-sulfaneylidene)-2-(4,6-diisopropyl-1,3-dihydroisobenzofuran-5-yl)acetamide] | – |
| – | > 30 | CC(C)c1cc2c(c(C(C)C)c1CC(=O)N=S(N)(=O)c1ccn(C(C)C)n1)COC2 (single isomer, unassigned) [Example 219, (S) or (R)-N-(amino(1-isopropyl-1H-pyrazol-3-yl)(oxo)-λ^6-sulfaneylidene)-2-(4,6-diisopropyl-1,3-dihydroisobenzofuran-5-yl)acetamide] | – |
| – | – | CC(C)c1cc(F)cc(C(C)C)c1CC(=O)N=S(N)(=O)c1ccc(C(C)(C)O)cc1 (stereo not drawn) [Compound 131] | IC50 [3]: 5 to 30 µM |
| – | > 17 | CC(C)(O)c1ncc(S(N)(=O)=NC(=O)Cc2cc3c(c4c2CCC4)CCC3)s1 (stereo not drawn) [Compound 259] | – |
| 5 to 30 | – | CC(C)(O)c1ncc([S@@](N)(=O)=NC(=O)Cc2cc3c(c4c2CCC4)CCC3)s1 [Compound 259a] | – |
| – | > 30 | CC(C)(O)c1ncc([S@](N)(=O)=NC(=O)Cc2cc3c(c4c2CCC4)CCC3)s1 [Compound 259b] | – |
| – | > 30 | CC(C)(O)c1ncc([S@@](N)(=O)=NC(=O)Cn2c3ccccc3c3ccccc32)s1 [Compound 262a] | – |
| 5 to 30 | – | CC(C)(O)c1ncc([S@](N)(=O)=NC(=O)Cn2c3ccccc3c3ccccc32)s1 [Compound 262b] | – |
| 5 to 30 | – | CC(C)(O)c1cnc(S(N)(=O)=NC(=O)Cc2c3c(cc4c2CCC4)CCC3)s1 (stereo not drawn) [Example 4, 2-(1,2,3,5,6,7-Hexahydro-s-indacen-4-yl)-N-(5-(2-hydroxypropan-2-yl)thiazol-2-ylsulfonimidoyl)acetamide] | – |
| 0.2 to 1 | – | CC(C)c1cc(F)cc(C(C)C)c1CC(=O)N=S(N)(=O)c1ncc(C(C)(C)O)s1 (stereo not drawn) [Example 7, 2-(4-Fluoro-2,6-diisopropylphenyl)-N-(5-(2-hydroxypropan-2-yl)thiazole-2-sulfonimidoyl)acetamide] | – |
| 5 to 30 | – | CC(C)c1cc(F)cc(C(C)C)c1CC(=O)N=S(=O)(NC(=O)Cc1c(C(C)C)cc(F)cc1C(C)C)c1ncc(C(C)(C)O)s1 (stereo not drawn) [Example 10, N,N-(5-(2-hydroxypropan-2-yl)thiazol-2-ylsulfinyl)bis(2-(4-fluoro-2,6-diisopropylphenyl)acetamide)] | – |
| 5 to 30 | – | CNS(=O)(=NC(=O)Cc1c(C(C)C)cc(F)cc1C(C)C)c1ncc(C(C)(C)O)s1 (stereo not drawn) [Example 11, 2-(4-Fluoro-2,6-diisopropylphenyl)-N-(5-(2-hydroxypropan-2-yl)-N-methylthiazole-2-sulfonimidoyl)acetamide] | – |
